One experiment deals with T1, AXL (Homo sapiens, UniProt P30530).
T1 sequence (P30530 26-894): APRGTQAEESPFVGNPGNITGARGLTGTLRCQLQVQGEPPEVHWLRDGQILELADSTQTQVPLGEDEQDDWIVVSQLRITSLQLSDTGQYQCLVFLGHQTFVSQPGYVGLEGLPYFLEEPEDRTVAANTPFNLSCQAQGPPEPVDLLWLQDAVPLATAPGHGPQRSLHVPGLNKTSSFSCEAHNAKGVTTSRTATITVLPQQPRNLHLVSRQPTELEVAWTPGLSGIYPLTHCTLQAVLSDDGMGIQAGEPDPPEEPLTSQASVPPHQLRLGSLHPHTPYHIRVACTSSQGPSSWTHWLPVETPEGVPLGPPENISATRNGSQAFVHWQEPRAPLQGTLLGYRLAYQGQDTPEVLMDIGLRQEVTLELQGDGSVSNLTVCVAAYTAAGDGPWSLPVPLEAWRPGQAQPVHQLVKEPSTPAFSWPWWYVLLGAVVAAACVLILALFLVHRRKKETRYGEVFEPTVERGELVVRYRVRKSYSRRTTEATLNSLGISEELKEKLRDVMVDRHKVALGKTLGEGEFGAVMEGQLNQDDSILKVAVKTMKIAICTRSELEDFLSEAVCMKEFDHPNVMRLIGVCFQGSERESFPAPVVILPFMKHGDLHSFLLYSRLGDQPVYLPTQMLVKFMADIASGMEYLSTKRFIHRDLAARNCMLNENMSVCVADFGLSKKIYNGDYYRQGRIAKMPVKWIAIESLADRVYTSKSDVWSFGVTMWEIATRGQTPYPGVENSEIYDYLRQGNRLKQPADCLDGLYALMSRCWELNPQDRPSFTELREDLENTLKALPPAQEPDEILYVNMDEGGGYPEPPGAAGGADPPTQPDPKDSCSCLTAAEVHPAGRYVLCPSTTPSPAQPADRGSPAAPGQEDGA
Kind of experiment: IMAP fluorescence polarization kinase assay, AXL. In kind it is biochemical. The following applies: ATP 24.7 μM, enzyme 2.5 nM, 240 minutes, read-out: AXL inhibitory constant (Ki). The protocol:
(§1) Activities of compounds against each of TYRO3, AXL, and MERTK as well as against FLT3, were determined using an immobilized metal ion affinity-based fluorescence polarization (“IMAP”) assay. A fluorescently-labeled substrate peptide was phosphorylated in the kinase reaction, after which a binding solution containing large trivalent metal-based nanoparticles was added and the phosphorylated substrate binds to these beads. This reduces the rotational speed of the substrate which is then detected using fluorescence polarization as a read-out.
(§2) The substrates used for each enzyme are as follows: AXL: 5F1-KKKKEEIYFFFG-NH2(SEQ ID NO:1); FLT3: 5F1-KKKKEEIYFFF-NH2 (SEQ ID NO:2); MERTK: 5F1-EFPIYDFLPAKKK-NH2 (SEQ ID NO:3); and TYRO3: 5F1-EFPIYDFLPAKKK-NH2 (SEQ ID NO:4).
(§3) This assay was performed in a 384-well, polystyrene microplate in a final volume of 8 μl. Substrate (final concentration=400 nM), ATP (final concentrations=24.7μM for AXL; 2.74 μM for FLT3; 2.69 μM for MERTK; and 54.0 μM for TYRO3), compounds and enzyme (final concentrations=2.5 nM for AXL, FLT3 and TYRO3; 1.5 nM for MERTK) were pipetted in this order into the appropriate reaction buffer (AXL: 50 mM HEPES, pH 8.0, 1 mM DTT, 10 mM MgCl2, 0.01% BRU35, 0.01% Triton X-100; FLT3: 50 mM HEPES, pH 8.0, 1 mM DTT, 10 mM MgCl2, 0.01% Triton X-100, 0.01% NP40; MERTK/TYRO3: 50 mM HEPES, pH 8.0, 1 mM DTT, 10 mM MgCl2, 0.01% Triton X-100) and incubated at room temperature for varying times (AXL, FLT3 and MERTK: 240 minutes; TYRO3: 60 minutes). IMAP binding solution was then dispensed, the plate incubated for 60 minutes at room temperature and the fluorescence polarization measured. Data were analyzed using XLfit.
For orientation: In fluorescence polarisation assays a small probe gives low polarisation when free and higher when bound to something large.

Another experiment concerns the target T2, TYRO3 (Homo sapiens, UniProt Q06418).
T2 sequence (Q06418 41-890): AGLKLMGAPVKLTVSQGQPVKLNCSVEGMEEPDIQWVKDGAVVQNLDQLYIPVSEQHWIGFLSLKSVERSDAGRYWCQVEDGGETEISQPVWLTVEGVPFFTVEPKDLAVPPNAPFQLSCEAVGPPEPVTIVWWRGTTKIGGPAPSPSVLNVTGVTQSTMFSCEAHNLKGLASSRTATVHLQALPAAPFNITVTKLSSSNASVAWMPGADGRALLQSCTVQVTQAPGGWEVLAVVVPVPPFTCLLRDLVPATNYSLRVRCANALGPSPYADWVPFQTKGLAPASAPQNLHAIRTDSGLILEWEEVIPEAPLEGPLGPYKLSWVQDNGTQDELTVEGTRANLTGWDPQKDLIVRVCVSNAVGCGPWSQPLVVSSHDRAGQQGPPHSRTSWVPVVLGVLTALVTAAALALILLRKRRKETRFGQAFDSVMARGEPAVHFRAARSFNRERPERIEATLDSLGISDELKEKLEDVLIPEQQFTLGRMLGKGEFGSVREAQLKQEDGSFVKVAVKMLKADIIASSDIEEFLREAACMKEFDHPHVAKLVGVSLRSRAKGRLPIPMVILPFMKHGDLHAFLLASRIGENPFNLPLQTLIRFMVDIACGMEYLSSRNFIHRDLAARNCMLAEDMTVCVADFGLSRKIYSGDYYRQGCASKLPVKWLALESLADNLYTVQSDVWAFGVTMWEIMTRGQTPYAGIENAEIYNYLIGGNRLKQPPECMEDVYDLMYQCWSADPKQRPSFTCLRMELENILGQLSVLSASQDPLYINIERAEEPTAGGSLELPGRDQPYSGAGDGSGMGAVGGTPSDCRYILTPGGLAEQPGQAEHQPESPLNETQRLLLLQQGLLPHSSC
Kind of experiment: IMAP fluorescence polarization kinase assay, TYRO3. As to conditions: ATP 54.0 μM, enzyme 2.5 nM, 60 minutes, read-out: TYRO3 inhibitory constant (Ki). It counts as biochemical. The protocol: as §1, §2, §3

Where a name gives a salt, the structure may show the parent alone. A value given as a limit tells only on which side of the number the result lay.

As a reminder, the Ki is the dissociation constant of the complex between target and ligand, obtained from inhibition or displacement. Consider `CCCc1cc2c(N[C@H]3CC[C@H](N)CC3)c(-c3cnn(C)c3)cnc2[nH]1` [Compound 108, (1r,4r)-N1-(5-(1-methyl-1H-pyrazol-4-yl)-2-propyl-1H-pyrrolo[2,3-b]pyridine-4-yl)cyclohexane-1,4-diamine hydrochloride], for which the Ki at AXL is 1000 to 10000 nM; at TYRO3, under 100 nM.
In the same order, the values of `CCCc1cc2c(N[C@H]3CC[C@H](N)CC3)c(-c3ccnc(N4CCCC4)n3)cnc2[nH]1` [Compound 118, (1r,4r)-N1-(2-propyl-5-(2-(pyrrolidin-1-yl)pyrimidin-4-yl)-1H-pyrrolo[2,3-b]pyridine-4-yl)cyclohexane-1,4-diamine hydrochloride] are 100 to 1000 nM and under 100 nM.
In the same order, the values of `CCCc1cc2c(N[C@H]3CC[C@H](N)CC3)c(C(=O)NC3CCN(c4ncccn4)CC3)cnc2[nH]1` [Compound 141] are 100 to 1000 nM and under 100 nM.
In the same order, the values of `CCC(C)c1cc2c(N[C@H]3CC[C@H](O)CC3)c(C(=O)NC3CCN(c4ncccn4)CC3)cnc2[nH]1` (stereo partly drawn) [Compound 157] are over 10000 nM and 1000 to 10000 nM.
As to `CCCc1cc2c(N[C@H]3CC[C@H](N)CC3)c(-c3cc(N)ncn3)cnc2[nH]1` [Compound 116], the Ki was 100 to 1000 nM at AXL and under 100 nM at TYRO3.
In the same order, the values of `N[C@H]1CC[C@H](Nc2c(C(=O)NCc3ccc(-n4ccnc4)cc3)cnc3[nH]c(C4CCCC4)cc23)CC1` [Compound 126] are 100 to 1000 nM and under 100 nM.
For `CCCc1cc2c(N[C@H]3CC[C@H](N)CC3)c(-c3ccc(COC(C)C)cn3)cnc2[nH]1` [Compound 130], in that order: 1000 to 10000 nM and under 100 nM.
For `CCCc1cc2c(N[C@H]3CC[C@H](N)CC3)c(C(=O)NC)cnc2[nH]1` [Compound 139], in that order: 100 to 1000 nM and under 100 nM.
As for `CCCc1cc2c(N[C@H]3CC[C@H](N)CC3)c(-c3cc(OC)ncn3)cnc2[nH]1` [Compound 122], the Ki is 100 to 1000 nM on AXL and under 100 nM on TYRO3.
In the same order, the values of `CCCc1cc2c(N[C@H]3CC[C@H](O)CC3)c(C(=O)NCc3ccc(-n4ccnc4)cc3)cnc2[nH]1` [Compound 102] are 100 to 1000 nM and under 100 nM.
For `CCCc1cc2c(N[C@H]3CC[C@H](N)CC3)c(-c3ccc(N)cn3)cnc2[nH]1` [Compound 120], in that order: 1000 to 10000 nM and under 100 nM.
For `CC(O)c1cc2c(N[C@H]3CC[C@H](N)CC3)c(C(=O)Nc3ccc(F)cc3)cnc2[nH]1` (stereo partly drawn) [Compound 148], in that order: over 10000 nM and 100 to 1000 nM.
For `CCCc1cc2c(N[C@H]3CC[C@H](O)CC3)c(-c3ccc(CN4CCOCC4)cc3)cnc2[nH]1` [Compound 106, (1r,4r)-4-((5-(4-(morpholinomethyl)phenyl)-2-propyl-1H-pyrrolo[2,3-b]pyridin-4-yl)amino)cyclohexanol hydrochloride], the values for the Ki at AXL and at TYRO3 were over 10000 nM and 100 to 1000 nM, respectively.
For `CCc1cc2c(N[C@H]3CC[C@H](N)CC3)c(C(=O)NC3CCN(c4ncccn4)CC3)cnc2[nH]1` [Compound 132], in that order: 100 to 1000 nM and under 100 nM.
In the same order, the values of `CCc1cc2c(N[C@H]3CC[C@H](O)CC3)c(-c3ccc(CN4CCOCC4)cn3)cnc2[nH]1` [Compound 144] are 100 to 1000 nM and under 100 nM.
For `CCCc1cc2c(N[C@H]3CC[C@H](O)CC3)c(-c3ccc(CNCC45C[C@H]6C[C@@H](C4)C[C@@H](C5)C6)cn3)cnc2[nH]1` [Compound 109], in that order: 100 to 1000 nM and under 100 nM.
For the compound `CCCc1cc2c(N[C@H]3CC[C@H](N)CC3)c(C(=O)OC)cnc2[nH]1` [Compound 140], the Ki on AXL was 1000 to 10000 nM; on TYRO3, under 100 nM.
In the same order, the values of `CCC[C@@H](C)c1cc2c(N[C@H]3CC[C@H](N)CC3)c(C(=O)Nc3ccc(F)cc3)cnc2[nH]1` [Compound 150] are 1000 to 10000 nM and under 100 nM.
In the case of `COC(C)c1cc2c(N[C@H]3CC[C@H](N)CC3)c(C(=O)Nc3ccc(F)cc3)cnc2[nH]1` (stereo partly drawn) [Compound 145], the Ki at AXL is over 10000 nM; at TYRO3, 100 to 1000 nM.
`CC[C@H](C)c1cc2c(N[C@H]3CC[C@H](N)CC3)c(C(=O)Nc3ccc(F)cc3)cnc2[nH]1` [Compound 156]: the results for the Ki at AXL and on TYRO3 were 1000 to 10000 nM and under 100 nM, respectively.
Regarding `C#Cc1cc2c(N[C@H]3CC[C@H](N)CC3)c(C(=O)Nc3ccc(F)cc3)cnc2[nH]1` [Compound 128, [4-1(4-aminocyclohexyl)amino]-2-ethynyl-N-(4-fluorophenyl)-1H-pyrrolo[2,3-b]pyridine-5-carboxamide], the inhibition constant Ki on AXL is 1000 to 10000 nM; at TYRO3 it was 100 to 1000 nM.
In the same order, the values of `CCC(C)c1cc2c(N[C@H]3CC[C@H](O)CC3)c(C(=O)NC3CCN(C4=NCCCN4)CC3)cnc2[nH]1` (stereo partly drawn) [Compound 158] are 1000 to 10000 nM and under 100 nM.
For the compound `CCC(OC)c1cc2c(N[C@H]3CC[C@H](N)CC3)c(C(=O)Nc3ccc(F)cc3)cnc2[nH]1` (stereo partly drawn) [Compound 146], the Ki was over 10000 nM on AXL and under 100 nM on TYRO3.
As for `CCCc1cc2c(N[C@H]3CC[C@H](O)CC3)c(C(=O)Nc3ccc(F)cc3)cnc2[nH]1` [Compound 101], the Ki is over 10000 nM on AXL and 100 to 1000 nM on TYRO3.
On to `COCC(C)c1cc2c(N[C@H]3CC[C@H](N)CC3)c(C(=O)Nc3ccc(F)cc3)cnc2[nH]1` (stereo partly drawn) [Compound 155], for which the inhibition constant (Ki) at AXL is over 10000 nM; at TYRO3, under 100 nM.
In the same order, the values of `CCC(C)c1cc2c(N[C@H]3CC[C@H](O)CC3)c(-c3ccc(S(=O)(=O)N4CCOCC4)cn3)cnc2[nH]1` (stereo partly drawn) [Compound 159] are over 10000 nM and 1000 to 10000 nM.
For `CCCc1cc2c(N[C@H]3CC[C@H](O)CC3)c(C(=O)NC3CCN(c4ncccn4)CC3)cnc2[nH]1` [Compound 104], in that order: 1000 to 10000 nM and under 100 nM.

For the origin of these results see patent publication US20200071326A1, “TAM KINASE INHIBITORS” (Syros Pharmaceuticals, Inc., priority 2017, published 2020).
